Results reported in patent US20230096766A1, “AMINO ACID HAVING FUNCTIONAL GROUP CAPABLE OF INTERMOLECULAR HYDROGEN BONDING, PEPTIDE COMPOUND CONTAINING SAME AND METHOD FOR PRODUCTION THEREOF” (Chugai Seiyaku Kabushiki Kaisha, priority 2018, published 2023).
*1 amine or outer side, *2 acyl side, *3 side chain or, on linkers, in order; H or OH if unused. Where a SMILES comes first, the peptide text is derived from it. Bridges are numbered along the chain shown (N, C = ends). [ ]: non-standard residue; d: D form. The star is where a group is joined. X19 = CC(C)C[C@H](NN(C)[C@H](Cc1ccccc1)N(C)[*:1])C(=O)[*:2]; NMeAla(4-thiazolyl) = CN[C@@H](Cc1cscn1)C(=O)O; Phe(4-COOH) = N[C@@H](Cc1ccc(C(=O)O)cc1)C(=O)O; NMePhe(3-Cl) = CN[C@@H](Cc1cccc(Cl)c1)C(=O)O; Tyr(3-F) = N[C@@H](Cc1ccc(O)c(F)c1)C(=O)O; Tyr(3-OMe) = COc1cc(C[C@H](N)C(=O)O)ccc1O; NMehPhe = CN[C@@H](CCc1ccccc1)C(=O)O; NMeF = CN[C@@H](Cc1ccccc1)C(=O)O; NMeGABA = CN(CCCC(=O)[*:2])[*:1]; NMeI = CC[C@H](C)[C@H](NC)C(=O)O; NMeL = CN[C@@H](CC(C)C)C(=O)O; Propyl(2R-OH) = C[C@@H](O)C*; NMeV = CN[C@H](C(=O)O)C(C)C; NMeA = CN[C@@H](C)C(=O)O; Piperidide = C1CCN(*)CC1; Me2NCH2CH2 = CN(C)CC*; NBuGly = CCCCNCC(=O)O; Isopentyl = CC(C)CC*; NPrGly = CCCNCC(=O)O; Ethyl(2-OH) = OCC*; N(OH)Me = CN(O)*; Sar = CNCC(=O)O; tBu = CC(C)(C)*

Experiment: in vitro
Conditions: human

| Compound | Papp (Caco-2, Caco-2 (cm/sec)) | other results |
| --- | --- | --- |
| CCCN1CC(=O)N(C)[C@@H](CC(C)C)C(=O)N[C@@H](COCCN(C)C)C(=O)N(C)[C@@H](Cc2ccccc2)C(=O)N(C)[C@@H](C(C)C)C(=O)N[C@H](C(=O)N2CCCCC2)CC(=O)N[C@H](C(C)C)C(=O)N(C)[C@@H](Cc2ccccc2)C(=O)N[C@@H](CC(C)C)C(=O)N(C)[C@@H](CC(C)C)C(=O)N[C@@H]([C@@H](C)O)C1=O [pd52] ([dV][NMeF]L[NMeL]T[NPrGly][NMeL]S(Me2NCH2CH2)[NMeF][NMeV]D-Piperidide; lactam N-11) | – | Papp (Caco-2, Caco-2): 0.12 ×10⁻⁶ cm/s |
| CCCN1CC(=O)N(C)[C@@H](CCc2ccccc2)C(=O)N(C)[C@@H](CC(C)C)C(=O)N[C@@H](COCCC(C)C)C(=O)N(C)[C@@H](CC(C)C)C(=O)N[C@H](C(=O)N2CCCCC2)CC(=O)N(C)CC(=O)N(C)[C@@H](Cc2cccc(Cl)c2)C(=O)N[C@@H](COCCO)C(=O)N(C)[C@@H](CC(C)C)C(=O)N[C@@H]([C@@H](C)O)C1=O [Compound A07] ([Sar][NMePhe(3-Cl)]S(Ethyl(2-OH))[NMeL]T[NPrGly][NMehPhe][NMeL]S(Isopentyl)[NMeL]D-Piperidide; lactam N-11) | 0.53 ×10⁻⁶ cm/s | – |
| CCCCN1CC(=O)N(C)[C@@H](CC(C)C)C(=O)N[C@@H](COC(C)(C)C)C(=O)N(C)[C@@H]([C@@H](C)CC)C(=O)N(C)[C@@H](CC(C)C)C(=O)N[C@H](C(=O)N2CCCCC2)CC(=O)N[C@H](C)C(=O)N(C)[C@@H](Cc2ccccc2)C(=O)N[C@@H](Cc2ccc(C(=O)N(C)O)cc2)C(=O)N(C)[C@@H](CC(C)C)C(=O)N[C@@H]([C@@H](C)O)C1=O [AP250] ([dA][NMeF][Phe(4-COOH)](N(OH)Me)[NMeL]T[NBuGly][NMeL]S(tBu)[NMeI][NMeL]D-Piperidide; lactam N-11) | 0.12 ×10⁻⁶ cm/s | – |
| CC(C)C[C@@H]1NC(=O)[C@H](Cc2ccccc2)N(C)C(=O)[C@@H](C(C)C)NC(=O)C[C@@H](C(=O)N2CCCCC2)NC(=O)[C@H](CC(C)C)N(C)C(=O)[C@H](Cc2cccc(Cl)c2)N(C)C(=O)[C@H](COC[C@@H](C)O)NC(=O)[C@H](CC(C)C)N(C)C(=O)CN(C)C(=O)[C@H]([C@@H](C)O)NC(=O)[C@H](CC(C)C)N(C)C1=O [AP72] ([dV][NMeF]L[NMeL]T[Sar][NMeL]S(Propyl(2R-OH))[NMePhe(3-Cl)][NMeL]D-Piperidide; lactam N-11) | 0.95 ×10⁻⁶ cm/s | – |
| CC[C@H](C)[C@@H]1NC(=O)[C@H](CC(C)C)N(C)C(=O)CCCN(C)C(=O)C[C@@H](C(=O)N2CCCCC2)NC(=O)[C@H](CC(C)C)N(C)C(=O)[C@H](C)N(C)C(=O)[C@H](Cc2ccc(O)cc2)NC(=O)[C@H](CC(C)C)N(C)C(=O)[C@H](COC(C)(C)C)NC(=O)[C@H](CC(C)C)N(C)C(=O)[C@H](Cc2ccccc2)N(C)C1=O [pd129] ([NMeGABA][NMeL]I[NMeF][NMeL]S(tBu)[NMeL]Y[NMeA][NMeL]D-Piperidide; lactam N-11) | 0.16 ×10⁻⁶ cm/s | – |
| CC(C)C[C@@H]1NC(=O)[C@H](Cc2ccccc2)N(C)C(=O)[C@H](C)N(C)C(=O)C[C@@H](C(=O)N2CCCCC2)NC(=O)[C@H](CC(C)C)N(C)C(=O)[C@H](Cc2ccccc2)N(C)C(=O)[C@H](Cc2ccccc2)NC(=O)[C@H](Cc2cscn2)N(C)C(=O)[C@H](C)N(C)C(=O)[C@H]([C@@H](C)O)NC(=O)[C@H](CC(C)C)N(C)C1=O [pd226] ([NMeA][NMeF]L[NMeL]T[NMeA][NMeAla(4-thiazolyl)]F[NMeF][NMeL]D-Piperidide; lactam N-11) | – | Papp (Caco-2, Caco-2 (cm/sec) Papp): 0.68 ×10⁻⁶ cm/s |
| CC(C)C[C@H]1C(=O)N[C@@H](Cc2ccc(O)cc2)C(=O)N(C)CC(=O)N(C)[C@@H](C)C(=O)N(C)[C@@H](CC(C)C)C(=O)N[C@@H](COC(C)(C)C)C(=O)N(C)[C@@H](C(C)C)C(=O)N[C@H](C(=O)N2CCCCC2)CC(=O)N(C)CC(=O)N(C)[C@@H](Cc2ccccc2)C(=O)N[C@@H](C(C)C)C(=O)N1C [pd115] ([Sar][NMeF]V[NMeL]Y[Sar][NMeA][NMeL]S(tBu)[NMeV]D-Piperidide; lactam N-11) | 0.22 ×10⁻⁶ cm/s | – |
| CC(C)C[C@@H]1NC(=O)[C@H](C)N(C)C(=O)C[C@@H](C(=O)N2CCCCC2)NC(=O)[C@H](CC(C)C)N(C)C(=O)CN(C)C(=O)[C@H](Cc2ccc(O)c(F)c2)NC(=O)[C@H](CC(C)C)N(C)C(=O)[C@H](C)N(C)C(=O)[C@H](C)NC(=O)[C@H](Cc2ccccc2)N(C)C(=O)[C@H](CC(C)C)N(C)C1=O [pd120] ([NMeA]L[NMeL][NMeF]A[NMeA][NMeL][Tyr(3-F)][Sar][NMeL]D-Piperidide; lactam N-11) | 0.23 ×10⁻⁶ cm/s | – |
| COc1cc(C[C@@H]2NC(=O)[C@H](CC(C)C)N(C)C(=O)CN(C)C(=O)[C@H]([C@@H](C)O)NC(=O)[C@H](CC(C)C)N(C)C(=O)[C@H](CC(C)C)NN(C)[C@H](Cc3ccccc3)N(C)C(=O)[C@@H](C(C)C)NC(=O)C[C@@H](C(=O)N3CCCCC3)NC(=O)[C@H](CC(C)C)N(C)C(=O)[C@H](CC(C)C)N(C)C2=O)ccc1O [Compound E01] ([dV][X19][NMeL]T[Sar][NMeL][Tyr(3-OMe)][NMeL][NMeL]D-Piperidide; lactam N-10) | 1.1 ×10⁻⁶ cm/s | – |
| CC(C)C[C@@H]1NC(=O)[C@H](C(C)C)N(C)C(=O)C[C@@H](C(=O)N2CCCCC2)NC(=O)[C@H](CC(C)C)N(C)C(=O)CN(C)C(=O)[C@H]([C@@H](C)O)NC(=O)[C@H](CC(C)C)N(C)C(=O)[C@H](CCc2ccccc2)N(C)C(=O)[C@H](COCCO)NC(=O)[C@H](Cc2ccccc2)N(C)C(=O)[C@H](CC(C)C)N(C)C1=O [Compound A06] ([NMeV]L[NMeL][NMeF]S(Ethyl(2-OH))[NMehPhe][NMeL]T[Sar][NMeL]D-Piperidide; lactam N-11) | 0.53 ×10⁻⁶ cm/s | – |
